Experimental data published in publication PMC7897990, “TriTOX: A novel Trichomonas vaginalis assay platform for high-throughput screening of compound libraries” (International Journal for Parasitology: Drugs and Drug …, 2021).
Read-outs that look alike come from different tables or passages of the source.

Key:
[1] = test system: Trichomonas vaginalis G3 trophozoites
[2] = test system: nontumorigenic neonatal foreskin fibroblast (NFF) cell line
[3] = replicate 1; parasite screen at 1 µg/mL
[4] = replicate 2; parasite screen at 1 µg/mL
[5] = HTS, parasite screen at 1 µg/mL, replicate 1
[6] = HTS, parasite screen at 1 µg/mL, replicate 2
[7] = NFF fibroblast screen at 5 µg/mL, A = active, I = inactive
[8] = HTS single concentration, parasite screen 1 µg/mL, replicate 1
[9] = HTS single concentration, parasite screen 1 µg/mL, replicate 2
[10] = NFF_NS1 screen 5 µg/mL, single concentration
[11] = parasite screen at 1 µg/mL, replicate 1
[12] = parasite screen at 1 µg/mL, replicate 2
[13] = NFF_NS1 screen at 5 µg/mL, NFF cells

CC[C@H](C)[C@H]1O[C@]2(CC[C@@H]1C)C[C@@H]1C[C@@H](C/C=C(\C)[C@@H](O[C@H]3C[C@H](OC)[C@@H](O[C@H]4C[C@H](OC)[C@@H](O)[C@H](C)O4)[C@H](C)O3)[C@@H](C)/C=C/C=C3\CO[C@@H]4[C@H](O)C(C)C=C(C(=O)O1)[C@]34O)O2 (stereo partly drawn) [BIA-I1581]
T.vaginalis_%inb_Rep1 [1, 3]: 13.44%
T.vaginalis_%inb_Rep2 [1, 4]: 13.34%
NFF_Activity ([2]; NFF cells, screen at 5 µg/mL): I (otherwise these were reported as inactive (I))

COc1c(-c2ccccc2)c2ccccc2[nH]c1=O [BIA-M1149]
T.vaginalis_%inb_Rep1 [1, 3]: 20.69%
T.vaginalis_%inb_Rep2 [1, 4]: 13.28%
NFF_Activity ([2]; NFF cells, screen at 5 µg/mL): I (otherwise these were reported as inactive (I))

CCC(=O)[C@@H](C)[C@@H](O)[C@H](C)C[C@@H](C)[C@H]1OC(=O)C[C@@]2(O)CC=C(C)[C@H](O2)/C(C)=C/CCC[C@@H](O[C@H]2C[C@@H](OC(N)=O)[C@H](O)[C@@H](C)O2)/C=C/[C@H](C)C[C@H]1C [Venturicidin A]
T.vaginalis_%inb_Rep1 [1, 5]: 9.49%
T.vaginalis_%inb_Rep2 [1, 6]: 12.92%
NFF_Activity [2, 7]: I (otherwise these were reported as inactive (I))

CCC(C(=O)C(C)C(O)C(C)CCc1ccc(C)c(O)c1C(=O)O)C1OC(CC)(C2CCC(O)(CC)C(C)O2)CC1C (stereo not drawn) [BIA-L1533]
T.vaginalis_%inb_Rep1 [1, 3]: 11.71%
T.vaginalis_%inb_Rep2 [1, 4]: 10.90%
NFF_Activity ([2]; NFF cells, screen at 5 µg/mL): I (otherwise these were reported as inactive (I))

Cc1c2c(c(O)c3c(O)ccc(Cl)c13)C(=O)[C@]1(O)C(O)=C(C(N)=O)C(=O)[C@@H](N(C)C)[C@@H]1C2.Cl [BIA-A1552]
T.vaginalis_%inb_Rep1 [1, 8]: 13.30%
T.vaginalis_%inb_Rep2 [1, 9]: 11.71%
NFF_Activity [2, 10]: I (otherwise these were reported as inactive (I))

CC(=O)OC[C@]12CCC(C)=C[C@H]1O[C@@H]1[C@H](O)[C@@H](O)[C@@]2(C)[C@]12CO2 [BIA-A1982]
T.vaginalis_%inb_Rep1 [1, 8]: 9.02%
T.vaginalis_%inb_Rep2 [1, 9]: 12.13%
NFF_Activity [2, 10]: A (active (A) compounds having >25% inhibitory activity)

COC1=C(N)C(=O)c2nc(-c3nc(C(=O)O)c(C)c(-c4ccc(OC)c(OC)c4O)c3N)ccc2C1=O [BIA-S1107]
T.vaginalis_%inb_Rep1 [1, 11]: 76.72%
T.vaginalis_%inb_Rep2 [1, 12]: 90.80%
NFF_Activity [2, 13]: A (active (A) compounds having >25% inhibitory activity)

CCC1OC(=O)CC(O)C(C)C(OC2OC(C)C(O)C(N(C)C)C2O)C(CCN2CC(C)CC(C)C2)CC(C)C(=O)C=CC(C)=CC1COC1OC(C)C(O)C(OC)C1OC.O=P(O)(O)O (stereo not drawn) [Tilmicosin phosphate]
T.vaginalis_%inb_Rep1 [1, 5]: 8.60%
T.vaginalis_%inb_Rep2 [1, 6]: 12.37%
NFF_Activity [2, 7]: I (otherwise these were reported as inactive (I))

CC(/C=C/[C@@]1(C)[C@H](C)CCC(=O)[C@@H]1C)=C\Cc1c(O)c(Cl)c(C)c(C=O)c1O [BIA-A1115]
T.vaginalis_%inb_Rep1 [1, 8]: 16.42%
T.vaginalis_%inb_Rep2 [1, 9]: 18.08%
NFF_Activity [2, 10]: I (otherwise these were reported as inactive (I))

CC(=O)NCCc1ccc(O)cc1 [BIA-A1731]
T.vaginalis_%inb_Rep1 [1, 8]: 13.35%
T.vaginalis_%inb_Rep2 [1, 9]: 10.05%
NFF_Activity [2, 10]: I (otherwise these were reported as inactive (I))

O=C1NCc2nc3ccccc3c(=O)n2-c2ccccc21 [BIA-S1678]
T.vaginalis_%inb_Rep1 [1, 11]: 10.85%
T.vaginalis_%inb_Rep2 [1, 12]: 12.61%
NFF_Activity [2, 13]: I (otherwise these were reported as inactive (I))

COC(=O)c1cc(O)cc(OC)c1Oc1cc(C)cc(O)c1C(=O)O [BIA-A1008]
T.vaginalis_%inb_Rep1 [1, 8]: 16.05%
T.vaginalis_%inb_Rep2 [1, 9]: 13.59%
NFF_Activity [2, 10]: I (otherwise these were reported as inactive (I))

CO[C@H]1C[C@H](O[C@H]2[C@H](C)O[C@@H](O[C@@H]3/C(C)=C/C[C@@H]4C[C@@H](C[C@]5(C=C[C@H](C)[C@@H](C(C)C)O5)O4)OC(=O)[C@@H]4C=C(C)[C@@H](O)[C@H]5OC/C(=C\C=C\[C@@H]3C)[C@]54O)C[C@@H]2OC)O[C@@H](C)[C@@H]1O [BIA-A1011]
T.vaginalis_%inb_Rep1 [1, 8]: 14.65%
T.vaginalis_%inb_Rep2 [1, 9]: 18.51%
NFF_Activity [2, 10]: I (otherwise these were reported as inactive (I))
